Reference: article PMC11189555, “Aryl amino acetamides prevent Plasmodium falciparum ring development via targeting the lipid-transfer protein PfSTART1” (Nature Communications, 2024)
Read-outs that look alike come from different tables or passages of the source.

What was measured:
[1] = test system: 3D7 P. falciparum parasites; experiment: Growth inhibition assay (72 h, LDH activity); type: cell-based, Plasmodium falciparum; details: for EC50: Plasmodium falciparum
Method: (§1) Parasite growth assays with inhibitory compounds were performed as per[11] and are fully described in the Supplementary Information. […]
(§2) Growth inhibition assays. Synchronised ring-stage parasites (0.3-0.6% parasitemia, 2% haematocrit) were grown for 72 h in a serial-dilution of the compound under […]
(§3) and compound 4. Note that M-833 was first purchased from MolPort (MolPort -002-267-916) then made in-house at WEHI: the differences observed in EC50s across experiments are attributed to the different batches of M -833. For some experiments, 0, 0.25 or 2.5 mM of glucosamine (GlcN) was also added. Experiments were set up in technical duplicates or triplicates. Following a freeze -thaw cycle, lactate dehydrogenase (LDH) activity was assessed as an indicator of parasite growt h 5. 30 μL of parasite culture was incubated for 30 min in the dark with 75 μL Malstat mixture (0.1 M Tris pH 9.0, 20 g/L lactic acid, pH 7.5, 0.2% Triton-X100, 0.5 g/L acetylpyridine adenine dinucleotide (APAD, Sigma), 200 μg/mL nitroblue tetrazolium (NBT; Sigma), 1 μg/mL phenozine ethosulfate (PES; Sigma)). Absorbance was then measured at 650 nm, transformed using the formula below, plotted against the logarithm of the concentrations, and a non-linear regression (log(inhibitor) vs. response, variable slope) was calculated using GraphPad Prism to assess the half-inhibitory […]
(§4) Growth inhibition % = (1 − average(sample)− average(uRBC)) ∗ 100 […]
(§5) The DMSO samples were also used to assess growth of parasite in the presence of 0.25 and 2.5 mM GlcN (normalised by DMSO in 0 mM GlcN). […]

[2] = test system: PopE-F10 M-833 resistant clone (PfSTART1 N330K); experiment: Growth inhibition assay (72 h, LDH activity); type: cell-based, Plasmodium falciparum
Method: The drug was then removed, and parasites were allowed to recover. Another cycle of drug treatment (3 μM M-833) was then resumed. The resistant lines were cloned out by limiting dilution (diluting the culture into a 96-well plate to achieve an average of ~0.3 parasites per well), prior to growth inhibition assays and genomic DNA (gDNA) extraction (DNeasy Blood and Tissue kit (Qiagen)[18].
as §1, §2, §3, §4, §5

O=C(CNc1ccc(Cl)c(S(=O)(=O)N2CCOCC2)c1)Nc1ccc(F)c(Cl)c1 [compound 2, reference compound]
(av-uRBC) / (DMSO-uRBC) x100 ([1]; 3D7, conc. 3.04832 nM, Biological replicate 1 (2021-10-25)): 101.583
(av-uRBC) / (DMSO-uRBC) x100 ([1]; 3D7, conc. 3.04832 nM, Biological replicate 2 (2021-11-03)): 104.234
(av-uRBC) / (DMSO-uRBC) x100 ([1]; 3D7, conc. 3.04832 nM, Biological replicate 3 (2021-11-11)): 118.798
(av-uRBC) / (DMSO-uRBC) x100 ([1]; 3D7, conc. 9.14495 nM, Biological replicate 1 (2021-10-25)): 98.3522
(av-uRBC) / (DMSO-uRBC) x100 ([1]; 3D7, conc. 9.14495 nM, Biological replicate 2 (2021-11-03)): 106.026
(av-uRBC) / (DMSO-uRBC) x100 ([1]; 3D7, conc. 9.14495 nM, Biological replicate 3 (2021-11-11)): 112.58
(av-uRBC) / (DMSO-uRBC) x100 ([1]; 3D7, conc. 27.4348 nM, Biological replicate 1 (2021-10-25)): 92.7855
(av-uRBC) / (DMSO-uRBC) x100 ([1]; 3D7, conc. 27.4348 nM, Biological replicate 2 (2021-11-03)): 105.906
(av-uRBC) / (DMSO-uRBC) x100 ([1]; 3D7, conc. 27.4348 nM, Biological replicate 3 (2021-11-11)): 106.329
(av-uRBC) / (DMSO-uRBC) x100 ([1]; 3D7, conc. 82.3045 nM, Biological replicate 1 (2021-10-25)): 76.9881
(av-uRBC) / (DMSO-uRBC) x100 ([1]; 3D7, conc. 82.3045 nM, Biological replicate 2 (2021-11-03)): 101.625
(av-uRBC) / (DMSO-uRBC) x100 ([1]; 3D7, conc. 82.3045 nM, Biological replicate 3 (2021-11-11)): 81.2348
(av-uRBC) / (DMSO-uRBC) x100 ([1]; 3D7, conc. 246.914 nM, Biological replicate 1 (2021-10-25)): 38.3866
(av-uRBC) / (DMSO-uRBC) x100 ([1]; 3D7, conc. 246.914 nM, Biological replicate 2 (2021-11-03)): 48.8275
(av-uRBC) / (DMSO-uRBC) x100 ([1]; 3D7, conc. 246.914 nM, Biological replicate 3 (2021-11-11)): 35.6638
(av-uRBC) / (DMSO-uRBC) x100 ([1]; 3D7, conc. 740.741 nM, Biological replicate 1 (2021-10-25)): 12.6522
(av-uRBC) / (DMSO-uRBC) x100 ([1]; 3D7, conc. 740.741 nM, Biological replicate 2 (2021-11-03)): 13.3573
(av-uRBC) / (DMSO-uRBC) x100 ([1]; 3D7, conc. 740.741 nM, Biological replicate 3 (2021-11-11)): 9.565
(av-uRBC) / (DMSO-uRBC) x100 ([1]; 3D7, conc. 2222.22 nM, Biological replicate 1 (2021-10-25)): 9.471
(av-uRBC) / (DMSO-uRBC) x100 ([1]; 3D7, conc. 2222.22 nM, Biological replicate 2 (2021-11-03)): 10.1641
(av-uRBC) / (DMSO-uRBC) x100 ([1]; 3D7, conc. 2222.22 nM, Biological replicate 3 (2021-11-11)): 7.82
(av-uRBC) / (DMSO-uRBC) x100 ([1]; 3D7, conc. 6666.67 nM, Biological replicate 1 (2021-10-25)): 8.762
(av-uRBC) / (DMSO-uRBC) x100 ([1]; 3D7, conc. 6666.67 nM, Biological replicate 2 (2021-11-03)): 10.3401
(av-uRBC) / (DMSO-uRBC) x100 ([1]; 3D7, conc. 6666.67 nM, Biological replicate 3 (2021-11-11)): 6.881
(av-uRBC) / (DMSO-uRBC) x100 ([1]; 3D7, conc. 20000 nM, Biological replicate 1 (2021-10-25)): 8.397
(av-uRBC) / (DMSO-uRBC) x100 ([1]; 3D7, conc. 20000 nM, Biological replicate 2 (2021-11-03)): 8.683
(av-uRBC) / (DMSO-uRBC) x100 ([1]; 3D7, conc. 20000 nM, Biological replicate 3 (2021-11-11)): 3.998
EC50 ([1]; 3D7, 72 h, Supplementary Table 1, 3D7, 72 h, read-out: EC50): 0.171 µM
EC50 ([1]; 3D7, Fig 4A, 3D7 parasites, read-out: Pf 3D7 EC50 (SD)): 0.14 µM
EC50 ([2]; Plasmodium falciparum, 72 h, Supplementary Table 1, PopE-F10 (N330K)): > 20 µM
resistance of the line compared with 3D7 ([2]; PopE-F10 (N330K), Fig 4B): highly resistant
(av-uRBC) / (DMSO-uRBC) x100 ([2]; PopE-F10, 3.04832 nM, biological replicate 1): 114.401
(av-uRBC) / (DMSO-uRBC) x100 ([2]; PopE-F10, 3.04832 nM, biological replicate 2): 112.198
(av-uRBC) / (DMSO-uRBC) x100 ([2]; PopE-F10, 3.04832 nM, biological replicate 3): 118.159
(av-uRBC) / (DMSO-uRBC) x100 ([2]; PopE-F10, 9.14495 nM, biological replicate 1): 113.83
(av-uRBC) / (DMSO-uRBC) x100 ([2]; PopE-F10, 9.14495 nM, biological replicate 2): 112.634
(av-uRBC) / (DMSO-uRBC) x100 ([2]; PopE-F10, 9.14495 nM, biological replicate 3): 115.839
(av-uRBC) / (DMSO-uRBC) x100 ([2]; PopE-F10, 27.4348 nM, biological replicate 1): 109.84
(av-uRBC) / (DMSO-uRBC) x100 ([2]; PopE-F10, 27.4348 nM, biological replicate 2): 113.332
(av-uRBC) / (DMSO-uRBC) x100 ([2]; PopE-F10, 27.4348 nM, biological replicate 3): 126.539
(av-uRBC) / (DMSO-uRBC) x100 ([2]; PopE-F10, 82.3045 nM, biological replicate 1): 112.064
(av-uRBC) / (DMSO-uRBC) x100 ([2]; PopE-F10, 82.3045 nM, biological replicate 2): 115.064
(av-uRBC) / (DMSO-uRBC) x100 ([2]; PopE-F10, 82.3045 nM, biological replicate 3): 112.119
(av-uRBC) / (DMSO-uRBC) x100 ([2]; PopE-F10, 246.914 nM, biological replicate 1): 108.998
(av-uRBC) / (DMSO-uRBC) x100 ([2]; PopE-F10, 246.914 nM, biological replicate 2): 111.627
(av-uRBC) / (DMSO-uRBC) x100 ([2]; PopE-F10, 246.914 nM, biological replicate 3): 122.435
(av-uRBC) / (DMSO-uRBC) x100 ([2]; PopE-F10, 740.741 nM, biological replicate 1): 107.242
(av-uRBC) / (DMSO-uRBC) x100 ([2]; PopE-F10, 740.741 nM, biological replicate 2): 111.201
(av-uRBC) / (DMSO-uRBC) x100 ([2]; PopE-F10, 740.741 nM, biological replicate 3): 127.133
(av-uRBC) / (DMSO-uRBC) x100 ([2]; PopE-F10, 2222.22 nM, biological replicate 1): 102.224
(av-uRBC) / (DMSO-uRBC) x100 ([2]; PopE-F10, 2222.22 nM, biological replicate 2): 112.371
(av-uRBC) / (DMSO-uRBC) x100 ([2]; PopE-F10, 2222.22 nM, biological replicate 3): 122.627
(av-uRBC) / (DMSO-uRBC) x100 ([2]; PopE-F10, 6666.67 nM, biological replicate 1): 102.39
(av-uRBC) / (DMSO-uRBC) x100 ([2]; PopE-F10, 6666.67 nM, biological replicate 2): 105.46
(av-uRBC) / (DMSO-uRBC) x100 ([2]; PopE-F10, 6666.67 nM, biological replicate 3): 111.965
(av-uRBC) / (DMSO-uRBC) x100 ([2]; PopE-F10, 20000 nM, biological replicate 1): 70.532
(av-uRBC) / (DMSO-uRBC) x100 ([2]; PopE-F10, 20000 nM, biological replicate 2): 73.7076
(av-uRBC) / (DMSO-uRBC) x100 ([2]; PopE-F10, 20000 nM, biological replicate 3): 50.604
Fold change compared to 3D7 ([2]; Supplementary Table 1, EC50 on PopE-F10 vs 3D7): > 117 fold
